Measurements as given in patent US11098038B2, “Imidazole-based anticancer agents and derivatives thereof, and methods of making and using same” (The University of Toledo, priority 2017, dated 2021).

Tests used:
DU-145 = test: NCI 60 screen, DU-145; format: cell-based; settings: Homo sapiens, Prostatic
Experimental: (§1) The compounds synthesized were tested at the National Cancer Institute (NCI) for anti-proliferative activity in the 60 human tumor cell line assay.

MDA-MB-435 = test: NCI 60 screen, MDA-MB-435; format: cell-based; settings: Homo sapiens, Melanoma
Experimental: as §1

UO-31 = test: NCI 60 screen, UO-31; format: cell-based; settings: Homo sapiens, Renal
Experimental: as §1

MDA-MB-231/ATCC = test: NCI 60 screen, MDA-MB-231/ATCC; format: cell-based; settings: Homo sapiens, Breast
Experimental: as §1

U251 = test: NCI 60 screen, U251; format: cell-based; settings: Homo sapiens, U-251, CNS
Experimental: as §1

SK-MEL-2 [1] = test: NCI 60 screen, SK-MEL-2 (first line); format: cell-based; settings: Homo sapiens; Melanoma, SK-MEL-2 (first of two lines so named, r37)
Experimental: as §1

SK-MEL-2 [2] = test: NCI 60 screen, SK-MEL-2 (second line); format: cell-based; settings: Homo sapiens; Melanoma, SK-MEL-2 (second of two lines so named, r38)
Experimental: as §1

OVCAR-5 = test: NCI 60 screen, OVCAR-5; format: cell-based; settings: Homo sapiens, Ovarian
Experimental: as §1

SR = test: NCI 60 screen, SR; format: cell-based; settings: Homo sapiens, Leukemia
Experimental: as §1

SNB-75 = test: NCI 60 screen, SNB-75; format: cell-based; settings: Homo sapiens, CNS
Experimental: as §1

PC-3 = test: NCI 60 screen, PC-3; format: cell-based; settings: Homo sapiens, Prostatic
Experimental: as §1

KM12 = test: NCI 60 screen, KM12; format: cell-based; settings: Homo sapiens, Colon
Experimental: as §1

RPMI-8226 = test: NCI 60 screen, RPMI-8226; format: cell-based; settings: Homo sapiens, Leukemia
Experimental: as §1

CCRF-CEM = test: NCI 60 screen, CCRF-CEM; format: cell-based; settings: Homo sapiens, Leukemia
Experimental: as §1

SK-OV-3 = test: NCI 60 screen, SK-OV-3; format: cell-based; settings: Homo sapiens, Ovarian
Experimental: as §1

OVCAR-8 = test: NCI 60 screen, OVCAR-8; format: cell-based; settings: Homo sapiens, Ovarian
Experimental: as §1

HT29 = test: NCI 60 screen, HT29; format: cell-based; settings: Homo sapiens, HT-29, Colon
Experimental: as §1

LOX IMVI = test: NCI 60 screen, LOX IMVI; format: cell-based; settings: Homo sapiens, Melanoma
Experimental: as §1

786-0 = test: NCI 60 screen, 786-0; format: cell-based; settings: Homo sapiens, Renal
Experimental: as §1

SF-268 = test: NCI 60 screen, SF-268; format: cell-based; settings: Homo sapiens, CNS
Experimental: as §1

OVCAR-4 = test: NCI 60 screen, OVCAR-4; format: cell-based; settings: Homo sapiens, Ovarian
Experimental: as §1

MCF7 = test: NCI 60 screen, MCF7; format: cell-based; settings: Homo sapiens, Breast
Experimental: as §1

SK-MEL-5 = test: NCI 60 screen, SK-MEL-5; format: cell-based; settings: Homo sapiens, Melanoma
Experimental: as §1

M14 = test: NCI 60 screen, M14; format: cell-based; settings: Homo sapiens, Melanoma
Experimental: as §1

MOLT-4 = test: NCI 60 screen, MOLT-4; format: cell-based; settings: Homo sapiens, Leukemia
Experimental: as §1

HL-60(TB) = test: NCI 60 screen, HL-60(TB); format: cell-based; settings: Homo sapiens, Leukemia
Experimental: as §1

HCC-2998 = test: NCI 60 screen, HCC-2998; format: cell-based; settings: Homo sapiens, Colon
Experimental: as §1

MALME-3M = test: NCI 60 screen, MALME-3M; format: cell-based; settings: Homo sapiens, Melanoma
Experimental: as §1

HCT-116 = test: NCI 60 screen, HCT-116; format: cell-based; settings: Homo sapiens, Colon
Experimental: as §1

In the case of Cn1ccnc1C(=O)/C=C/c1ccc(CC(=O)Nc2ccc(F)cc2)cc1 [Compound 28, (E)-N-(4-fluorophenyl)-2-(4-(3-(1-methyl-1H-imidazol-2-yl)-3-oxoprop-1-en-1-yl)phenyl)acetamide], the GI50 (DU-145) was 1240 nM, the GI50 (MDA-MB-435) was 4250 nM and the GI50 (UO-31) was 1720 nM. It also gave a GI50 (MDA-MB-231/ATCC) of 2960 nM, a GI50 (U251) of 1400 nM and a GI50 (SK-MEL-2 [1]) of 7010 nM. The GI50 (SK-MEL-2 [2]) was 4470 nM, the GI50 (OVCAR-5) was 4360 nM and the GI50 (SR) was 510 nM. For the same compound, the GI50 (SNB-75) was 3740 nM, the GI50 (PC-3) was 1990 nM and the GI50 (KM12) was 1620 nM. It also gave a GI50 (RPMI-8226) of 1020 nM, a GI50 (CCRF-CEM) of 2000 nM and a GI50 (SK-OV-3) of 9810 nM. It also gave a GI50 (OVCAR-8) of 5710 nM, a GI50 (HT29) of 2270 nM and a GI50 (LOX IMVI) of 710 nM. The GI50 (786-0) was 1370 nM, the GI50 (SF-268) was 2890 nM and the GI50 (OVCAR-4) was 5680 nM. For the same compound, the GI50 (MCF7) was 1040 nM, the GI50 (SK-MEL-5) was 4450 nM and the melting point was 213 °C. It also gave a GI50 (M14) of 3230 nM, a GI50 (MOLT-4) of 2320 nM and a GI50 (HL-60(TB)) of 1600 nM. It also gave a GI50 (HCC-2998) of 3780 nM, a GI50 (MALME-3M) of 5280 nM and a GI50 (HCT-116) of 990 nM.
